Source: US20250352506A1, “MRGPRB2/X2, AGONIST AND ANTAGONIST AND METHODS THEREOF” (THE UNIVERSITY OF HONG KONG, priority 2024, published 2025)
“Also recorded” adds a separate entry of the source.

What was measured:
[1] = test system: DSS-induced colitis in mice models; conditions: recent studies [41]-[44]; cited from earlier work
[2] = test system: 2.5% DSS-induced colitis in C57BL/6N mice; experiment: Treatment study in 2.5% DSS-induced colitis, clinical parameters (DAI, colon, H&E); type: in vivo, mouse; conditions: WT mice, 2.5% DSS Day 0 to 5, ligands every alternative day to Day 12; P17 and analogues 150 μg/kg, CST-14 15 μg/kg, GE1111 300 μg/kg
Text: (§1) C57BL/6N and Mrgprb2−/− adult mice (6-8 weeks old) were obtained from CMMR and housed in cages for acclimatation for a week. C57BL/6N and Mrgprb2−/− mice were divided into four groups (N=5-6) (2% DSS in drinking water and water control). Controls were fed with regular water and the treatment groups were exposed to 2% DSS for 5 days (Day 0 to Day 5) and regular water till Day 12. DSS-Colitis Grade (36,000-50,000 MW) (MP Biomedicals, Santa Ana, CA) was used in this study. During experiments, these mice were given anaesthesia to harvest blood and organs for other biochemical and histology analysis. For the survival study with Mrgprb2/x2 agonists, C57BL/6N mice were grouped into […] (N=10) and fed with 4% DSS for 5 days (Day 0 to 5) and replaced with regular drinking water for the rest of the experiment. Meanwhile, Mrgprb2/x2 ligands were given to the animals every alternative day via i.p. injection 100 μL with 10 μg/kg mice. […]
All animals were examined daily and the disease activity index (DAI) score was assessed as previously described by assessing stool consistency, presence of blood in stool and body weight change as summarised in Table 1. Percentage of body weight was calculated relative to the initial body weight at Day 0 [(Weight on a Day−Initial weight at Day 0/Initial weight at Day 0)×100].

[3] = test system: 4% DSS-induced colitis in C57BL/6N mice; experiment: Survival study in 4% DSS-induced colitis; type: in vivo, mouse; conditions: WT mice, i.p. every alternative day
Text: as §1, with “mice. For the treatment study with Mrgprb2/x2 ligands, C57BL/6N mice were divided into 7 groups (N=8 per group). Six groups were receiving 2.5% DSS dissolved in drinking water for 5 days (Day 0 to Day 5) and regular water till Day 12 and the control group was receiving water from Day 0 to Day 12. These 6 groups exposed to 2.5% DSS were treated with Mrgprb2/x2 ligands or saline for every alternative day till Day 12.” for “mice.”

[4] = test system: cytokine and chemokine releases in the blood; experiment: Cytokine array analysis of blood plasma; type: in vivo, mouse; conditions: mice exposed to 2.5% DSS, 40-target array
Protocol: The cytokine membranes were blocked with blocking buffer in room temperature for 1 hr. The blocking buffer was removed from the membranes and […] of plasma obtained from the treatment groups (WT+Water, WT+2% DSS, Mrgprb2−/−+Water and Mrgprb2−/−+2% DSS; Water+Saline, 2.5% DSS+Saline, 2.5% DSS+P17*A7 and 2.5% DSS+GE1111) diluted in blocking buffer (total volume 1 mL) were subjected to membrane containing array of antibodies anti-cytokines. The membranes were first incubated at 4 °C for 24 hr in the blocking buffer, following five washes with washing buffers (I and II) and then incubated with 1× biotin-conjugated anti-cytokines overnight at 4 °C. Membranes were washed again with washing buffers (I and II) 5 five times and incubated with 1×HRP-conjugated streptavidin for 2 hr at room temperature. Membranes were washed again, and 1 mL of detection buffer C and D were mixed and added to each membrane in dark for 2 min before imaging. Finally, array images were measured with ChemiDoc MP (Bio-Rad Laboratories, Hercules, CA). The detailed protocol can be referred to the instructions of a Cytokine Antibody Array Kit (ab133999—40 targets, Abcam).

[5] = test system: M-CSF, BLC, G-CSF and sTNF RI in blood plasma; experiment: ELISA of cytokines in blood plasma; type: in vivo, mouse; conditions: mice exposed to 2.5% DSS
Protocol: Concentrations of cytokines in blood plasma of the treatment groups (WT+Water, WT+2% DSS, Mrgprb2−/−+Water, Mrgprb2−/−+2% DSS, Water+Saline, 2.5% DSS+Saline, 2.5% DSS+P17, 2.5% DSS+P17*A4, 2.5% DSS+P17*A7, 2.5% DSS+CST-14 and 2.5% DSS+GE1111) were determined using ELISA kits (M-CSF-ab199084, Abcam; LIX—ab264611, Abcam; sTNF RI—ab202408, Abcam; G-CSF—ab197743, Abcam; BLC-EMCXCL13, Thermofisher) according to the manufacturer's protocol. Optical densities of the samples and standards were measured using PerkinElmer Victor X4. Cytokine concentrations were determined by comparing the optical density from the standard curve of each cytokine standards.

[6] = test system: Mrgpra1 and Mrgprb2 expression in colon; experiment: qRT-PCR of mouse orthologs of Mrgprx2 in colon; type: in vivo; conditions: WT mice, 2.5% DSS-induced colitis
Protocol: To assess the gene expression profile in colon, distal colons were used to isolate total RNA using Trizol. Total RNA was precipitated for 30 min in […] with isopropanol and glycogen. The precipitated RNA was then washed with 75% ethanol and resuspended in RNase-free water for first strand cDNA synthesis following the protocol from HiScript® II Q RT SuperMix (Vazyme biotech co., ltd, China). cDNA harvested were quantified by quantitative PCR (7300 Real-Time PCR System, Applied Biosystems, Forster City, CA). The expression of genes was examined using ChamQ™ SYBR Color qPCR Master Mix as specified by the manufacturer protocol. All primer sequences are shown in Supplementary Table S1. […] method was employed for data analysis with the internal control, glyceraldehyde-3-phosphate dehydrogenase (gapdh).

[7] = test system: pERK 1/2 MAPK pathway and STIM1 in LAD2 mast cells; experiment: Western blot of LAD2 mast cells treated with Mrgprx2 ligands (pERK1/2, STIM1); type: cell-based; conditions: GE1111 25 μM added 30 min prior to agonists
Protocol: LAD2 cells were treated with agonists (1 μM Compound 48/80, P17, P17*A4, P17*A7 and 25 μM GE1111) for 15 min. For antagonist study, GE1111 (25 μM) were added 30 min prior to adding the agonists ([…] Compound 48/80, P17, P17*A4 and P17*A7). Cells were harvested and RIPA buffer containing cocktail mix of phosphatase and protease inhibitors was used to extract protein. Upon Bradford assay, harvested proteins were denatured with Lamelli buffer at 95° C. for 5 min. Protein samples were loaded in SDS-PAGE and transferred to nitrocellulose membrane. Membranes were blocked with 5% BSA for 1 hr and incubated at 4° C. overnight with primary antibodies (1:1000) in BSA (p44/42 MAPK (Erk1/2) (137F5) Rabbit mAb #4695, cell signalling, USA; Phospho-p44/42 MAPK (Erk1/2) (Thr202/Tyr204) (D13.14.4E) XP® Rabbit mAb #4370, Cell Signalling, USA; GAPDH (14C10) Rabbit mAb #2118, Cell signalling, USA; STIM1 Antibody #4916, Cell Signalling, USA) followed by (1:2000) HRP linked anti-rabbit secondary antibody (Anti-rabbit IgG, HRP-linked Antibody #7074) in 1 hr at room temperature. ECL was added and blots were visualized with Bio Rad CHEMIDOC™ MP imaging system.

Mrgprx2 = molecular target: T1, Mrgprx2 (Homo sapiens, UniProt Q96LB1); experiment: PRESTO-Tango GPCR β-arrestin recruitment assay in Mrgprx2-transfected HTLA cells; type: cell-based
T1 construct: Tango fusion cassette; expressed in transfected cells; host or cells: HTLA cells
T1 sequence (Q96LB1 1-330): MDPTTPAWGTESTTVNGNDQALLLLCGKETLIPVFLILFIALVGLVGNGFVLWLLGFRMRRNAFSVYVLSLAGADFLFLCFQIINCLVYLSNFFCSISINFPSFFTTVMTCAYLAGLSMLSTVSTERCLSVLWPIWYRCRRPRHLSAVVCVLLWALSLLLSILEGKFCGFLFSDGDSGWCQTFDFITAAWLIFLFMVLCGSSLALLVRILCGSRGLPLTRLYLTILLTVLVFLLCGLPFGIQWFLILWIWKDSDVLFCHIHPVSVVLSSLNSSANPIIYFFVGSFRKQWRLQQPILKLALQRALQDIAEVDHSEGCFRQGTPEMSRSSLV
Protocol: HTLA cells were maintained in DMEM supplemented with 10% FBS, 2 μg/mL puromycin and 100 μg/mL hygromycin B in a humidified atmosphere at 37° C. in 5% CO2. One million cells were seeded in 100 mm cell culture dish (Day 1). Cells were transfected with 4 μg Tango-MRGPRX2 construct using Lipofectamine 2000 reagent (Day 2). On day 3, cells were harvested and 20,000 cells per well were plated in 80 μL medium into poly-L-lysine coated and rinsed 96-well white cell culture plates (PerkinElmer). On day 4, GE1111 (final concentration […]) is added 1 hr prior to the agonists or antagonist in dose response manner (Compound 48/80, P17, P17*A4, P17*A7 and GE1111). On day 5, medium and drugs were removed from the wells slowly (aspiration) and […] luciferase substrate solution (500 mM DTT, 10 mM CoA, 100 mM ATP, 80 mg/mL luciferin and triton lysis buffer) were added to each well. After incubation for 10 min at room temperature, luminescence was counted in PerkinElmer Victor X4. RLU (relative luminescence units) results were exported into Excel sheets and GraphPad Prism 10 was used for analysis of data. To measure constitutive basal activity, no ligand was added on day 4.

Compound	DSS-induced colitis symptoms [1]	severity of DSS-induced colitis [2]	survival of mice [3]	cytokine and chemokine levels in the blood plasma (array) [4]	M-CSF, BLC and G-CSF levels in blood plasma [5]	expression of Mrgpra1 and Mrgprb2 in colon [6]	effect on agonist-induced pERK1/2 / STIM1 pathway [7]	effect on agonist-induced β-arrestin recruitment (Mrgprx2; GE1111 (final concentration 10 PM) added 1 hr prior to the agonists)	GE1111 dose response on Mrgprx2 (no agonist) (Mrgprx2; Mrgprx2-transfected HTLA cells, GE1111 alone)
O=c1c(O)c(-c2ccc(O)c(O)c2)oc2cc(O)cc(O)c12 [quercetin]	ameliorate DSS-induced colitis symptoms								
protegrin	ameliorate DSS-induced colitis symptoms								
cortistatin 14 [CST-14, reference compound]	ameliorate DSS-induced colitis symptoms	reduced the severity of DSS-induced colitis	increased the survival rate						
COC(=O)c1cc2cc(NC(N)=O)ccc2cc1-c1cc2c3c(c(O)ccc3c1)C(C)C(C=O)=C2 (stereo not shown) [GE1111]		reduced the severity of DSS-induced colitis	increased the survival rate; also recorded: mimicked the effect of the agonist on mice survival	significant modifications in most of the cytokine and chemokine levels	significant reduction in these cytokine levels	restored their expression to the levels of healthy mice	antagonized this pathway	antagonized the agonist activity	behaved as an inverse agonist
